Laboratory results from patent publication EP1488698A1, “Compositions for descreasing intracellular inositol trisphosphate concentration and uses thereof” (priority 1995, dated 1997).
Marks after values point to notes of the source that are not given here.

Legend:
PC12 cells = test: Phosphoinositide hydrolysis assay (InsP3 production) in PC12 cells; format: cell-based, rat; settings: for sensitivity of PC12 cells to bradykinin: even at relatively moderate levels
Text: PC12 cells, from a rat adrenal pheochromocytoma cell line, were used as a model of neurons from the peripheral nervous system. These cells were obtained from a common laboratory cell culture stock and grown in plastic culture flasks in Dulbecco's modified Eagle's medium (DMEM) supplemented with 5% heat-inactivated horse serum and 10% heat-inactivated fetal calf serum (PC12 cells are also available from the American Type Culture Collection under the Accession number CRL 1721). The cells were grown at 37°C in 5% CO2 in air until a confluent monolayer formed. The cells were dispersed into 24-well plastic tissue culture plates at a density of 10^5 cells per well and used for the phosphoinositide hydrolysis assays (as described in Example 2).
(§1) Receptor-stimulated and basal unstimulated hydrolysis of phosphoinositides was measured by the following procedure. In order to label the cellular phosphoinositides metabolically, the primary cultures of chick cortical neurons (described in Example 1) were incubated overnight with 0.5 ml Dulbecco's modified Eagle's medium containing 1 µCi [^3H]myo-inositol per well. The cells were then washed twice with 1 ml Dulbecco's phosphate-buffered saline (PBS) and 0.5 ml of PBS containing 4.5 g/L glucose was added. Sphingosine, psychosine, lysosulphatide, or lysosphingomyelin, prepared as the hydrochloride salt dissolved in water, were then added to produce the desired extracellular concentration in specific wells, and the 24-well plates were swirled gently on a rotary shaker for 1 hour at 23°C. The cells were then washed twice with 1 ml PBS, and pre-incubated for 15 minutes at 37°C with 0.5 ml PBS containing 10 mM LiCl and the compound to be tested was added. After 30 minutes, the experiment was terminated by adding 1 ml of ice-cold methanol to each well and transferring the material in each well to polypropylene tubes that contained 0.4 ml water and 1 ml chloroform. The tubes were vortexed thoroughly, then centrifuged at 500 x g for 5 minutes to separate the aqueous and chloroform phases. For each sample, a 1.5-ml aliquot of the upper (aqueous) phase was applied to a small column containing BioRad AG1X8 resin (formate form). Free [^3H]inositol and [^3H]glycerophosphoinositol were washed through the column with 5 ml of a solution containing 5 mM sodium borate and 60 mM sodium formate. The total phosphorylated [^3H] inositol fraction was eluted from the column for radiometric scintillation spectrometry analysis with 3 ml 1.0 M ammonium formate/0.1 M formic acid.
(§2) In addition, a 0.5 ml aliquot of the lower (chloroform) phase of each sample was analyzed radiometrically by scintillation spectrometry in order to determine the quantity of lipid-bound [^3H]myo-inositol. Estimation of phosphoinositide hydrolysis by phospholipase C is based upon the quantity of [^3H]inositol phosphates produced, and is expressed as the percentage of the latter relative to total free and componential [^3H]inositol (dpm ammonium formate + dpm chloroform fractions).

[1] = test system: primary chick cortical neurons; test: Phosphoinositide hydrolysis assay (InsP3 production) in cultured primary cortical neurons; format: cell-based; settings: for Ins-P-n with Lysosphinogolipid Modulator, agonist Aspartate: 100 μM Aspartate, 20 min, neurons preincubated with 20 μM modulator (or 20 μM + 20 μM Sphingosine), washed, normalized to control = 1.00; for enhancement of InsP3 level caused by sphingosine or by metabotropic glutamate receptor agonists / InsP3 signalling: cortical neurons; for InsP3 signalling: as shown in Table 1
Protocol: The neurons were seeded in 24-well plastic tissue culture plates that had been coated with L-polylysine.
as §1, with “In order to label the cellular phosphoinositides metabolically, the primary cultures of chick cortical neurons (described in Example 1) were incubated overnight with 0.5 ml Dulbecco's modified Eagle's medium containing 1 µCi [^3H]myo-inositol per well.” left out, “and the 24-well plates were swirled gently on a rotary shaker for 1 hour at 23°C.” left out, “After 30 minutes, the experiment was terminated by adding 1 ml of ice-cold methanol to each well and transferring the material in each well to polypropylene tubes that contained 0.4 ml water and 1 ml chloroform.” left out
as §2

Intact neurons = test: Lysosphingolipid loading of intact neurons (fluorescence tagging); format: in vitro ADME, chick; settings: 10 μmolar exposure
Text: Total lipids were removed from the neuron samples by repeated extraction with chloroform:methanol (2:1, vol:vol). The lysosphingolipids were separated from total neuronal lipid in 90 ± 5 % recovery yield (n = 10) by the stepped chromatographic procedure of Van Veldhoven et al. (Anal. Biochem. 183:177-189, 1989). The recovered lysosphingolipids were stably tagged with NBDZF by the rapid procedure of Nozowa et al. (supra). The fluorescence tagged neuronal lysosphingolipids were separated in parallel with reference standards NBDZF-Sph, NBDZF-Psy, and NBDZF-Lsm on high performance silica gel thin layer chromatography plates with acetonitrile:H2O (10:0.5, vol:vol). The highly fluorescent, well separated bands were scraped from the plate. The fluorescence tagged lysosphingolipids are eluted from the scraped silica gel with methanol:1 N HCl (1:0.02, vol:vol). The fluorescence tagged lysosphingolipid eluates were quantitated against reference standards by fluorescence measurement in a Perkin-Elmer LS-5 Fluorescence Spectrometer.
Sphingolipid content of neurons exposed to sphingosine, lysocerebroside, and lysosphingomyelin was examined as follows. A Petri dish containing approximately 10^7 neurons was incubated with 5 µCi [^3H]myo-Ins in 3 ml DMEM overnight to prelabel the phosphoinositide InsP3 may contain. The neurons were washed with PBS and 3 ml of PBS containing 4.5 g/l glucose was added. Preparations of sphingosine, lysocerebroside, lysosphingomyelin (Sigma Chemical Co., St. Louis, MO) and combinations of each were prepared as the hydrochloride salt dissolved in PBS. The lysosphingolipids were added to the Petri dishes to produce a concentration ranging from 0 - 150 µM. […] Trypsinization removes non-specifically bound lysosphingolipids that may adhere to extracellular plasma membrane protein domains. Non-specific adherence between cationic micelles of lysosphingolipids and the neuronal glycocalyx is avoided by performing the experiments with lysosphingolipid concentrations below the critical micelle concentration. Neurons were analyzed for lysosphingolipid content as described above.
The suspended plasma membrane preparation was apportioned into 250 µl samples, each providing approximately 100 µg membrane protein. Sphingosine, psychosine, and lysosphingomyelin were added to each plasma membrane sample. The samples were held at room temperature for 3 hours, centrifuged at 300,000 X g for 30 minutes, and the supernatant discarded. Samples were analyzed for lysosphingolipid loading (i.e., membrane lysosphingolipid content following exposure to exogenous sphingolipid) by fluorescence tagging. Table 2 provides the results of exposure of plasma membrane samples to 10 µM lysosphingolipids. Values are reported in pmoles lysosphingolipid/mg plasma membrane protein. Values obtained for isolated plasma membrane and intact neurons are compared.

Compound | InsP3 production (PC12 cells; PC12 cells, Fig 3) | sensitivity of PC12 cells to bradykinin (PC12 cells; Fig 3) | Ins-P-n with Lysosphinogolipid Modulator, agonist Aspartate [1] | enhancement of InsP3 level caused by sphingosine or by metabotropic glutamate receptor agonists [1] | InsP3 signalling [1] | lysosphingolipid content, 0 hours of incubation (Intact neurons) | lysosphingolipid content, 0.5 hours of incubation (Intact neurons) | lysosphingolipid content, 1.0 hours of incubation (Intact neurons) | lysosphingolipid content, 2.0 hours of incubation (Intact neurons) | lysosphingolipid content, 3.0 hours of incubation (Intact neurons) | IC50 (PC12 cells; Rattus norvegicus, PC-12, 0.5 h, read-out: concentration sufficient to reduce a metabotropic response to bradykinin to half maximum) | basal, unstimulated level of InsP3 production (PC12 cells; PC12 cells, Fig 3) | basal, unstimulated InsP3 level in cortical neurons [1]
CCCCCCCCCCCCC/C=C/[C@@H](O)[C@@H](N)COP(=O)([O-])OCC[N+](C)(C)C [lysosphingomyelin, sphingosyl phosphorylcholine] | strongly inhibit | can entirely block | 1.00±0.06^e | blocked this enhancement | potently modulated InsP3 signalling | 5±1 pmoles lysosphingolipid/mg plasma membrane protein | 8±2 pmoles lysosphingolipid/mg plasma membrane protein | 20±5 pmoles lysosphingolipid/mg plasma membrane protein | 45±5 pmoles lysosphingolipid/mg plasma membrane protein | 55±15 pmoles lysosphingolipid/mg plasma membrane protein | – | – | –
CCCCCCCCCCCCC/C=C/[C@@H](O)[C@@H](N)CO[C@@H]1O[C@H](CO)[C@H](O)[C@H](O)[C@H]1O [psychosine] | strongly inhibit | can entirely block | 1.00±0.06^e | blocked this enhancement | potently modulated InsP3 signalling | 25±5 pmoles lysosphingolipid/mg plasma membrane protein | 35±15 pmoles lysosphingolipid/mg plasma membrane protein | 45±10 pmoles lysosphingolipid/mg plasma membrane protein | 80±5 pmoles lysosphingolipid/mg plasma membrane protein | 80±5 pmoles lysosphingolipid/mg plasma membrane protein | 50 µM | – | –
CCCCCCCCCCCCC/C=C/[C@@H](O)[C@@H](N)CO [sphingosine] | – | – | – | – | potently modulated InsP3 signalling | 85±15 pmoles lysosphingolipid/mg plasma membrane protein | 85±20 pmoles lysosphingolipid/mg plasma membrane protein | 110±15 pmoles lysosphingolipid/mg plasma membrane protein | 105±5 pmoles lysosphingolipid/mg plasma membrane protein | 115±15 pmoles lysosphingolipid/mg plasma membrane protein | – | tonically upregulated | tonically enhanced
